According to patent US12662491B2 (Redona Therapeutics, Inc., priority 2020, dated 2026):

Target: T1, Zcchc11 enzyme (Homo sapiens, UniProt Q5TAX3)
T1 construct: made in house; host or cells: HEK293 cells (Zcchc11); E. coli Rosetta II (LIN28A)
T1 sequence (Q5TAX3 212-1420): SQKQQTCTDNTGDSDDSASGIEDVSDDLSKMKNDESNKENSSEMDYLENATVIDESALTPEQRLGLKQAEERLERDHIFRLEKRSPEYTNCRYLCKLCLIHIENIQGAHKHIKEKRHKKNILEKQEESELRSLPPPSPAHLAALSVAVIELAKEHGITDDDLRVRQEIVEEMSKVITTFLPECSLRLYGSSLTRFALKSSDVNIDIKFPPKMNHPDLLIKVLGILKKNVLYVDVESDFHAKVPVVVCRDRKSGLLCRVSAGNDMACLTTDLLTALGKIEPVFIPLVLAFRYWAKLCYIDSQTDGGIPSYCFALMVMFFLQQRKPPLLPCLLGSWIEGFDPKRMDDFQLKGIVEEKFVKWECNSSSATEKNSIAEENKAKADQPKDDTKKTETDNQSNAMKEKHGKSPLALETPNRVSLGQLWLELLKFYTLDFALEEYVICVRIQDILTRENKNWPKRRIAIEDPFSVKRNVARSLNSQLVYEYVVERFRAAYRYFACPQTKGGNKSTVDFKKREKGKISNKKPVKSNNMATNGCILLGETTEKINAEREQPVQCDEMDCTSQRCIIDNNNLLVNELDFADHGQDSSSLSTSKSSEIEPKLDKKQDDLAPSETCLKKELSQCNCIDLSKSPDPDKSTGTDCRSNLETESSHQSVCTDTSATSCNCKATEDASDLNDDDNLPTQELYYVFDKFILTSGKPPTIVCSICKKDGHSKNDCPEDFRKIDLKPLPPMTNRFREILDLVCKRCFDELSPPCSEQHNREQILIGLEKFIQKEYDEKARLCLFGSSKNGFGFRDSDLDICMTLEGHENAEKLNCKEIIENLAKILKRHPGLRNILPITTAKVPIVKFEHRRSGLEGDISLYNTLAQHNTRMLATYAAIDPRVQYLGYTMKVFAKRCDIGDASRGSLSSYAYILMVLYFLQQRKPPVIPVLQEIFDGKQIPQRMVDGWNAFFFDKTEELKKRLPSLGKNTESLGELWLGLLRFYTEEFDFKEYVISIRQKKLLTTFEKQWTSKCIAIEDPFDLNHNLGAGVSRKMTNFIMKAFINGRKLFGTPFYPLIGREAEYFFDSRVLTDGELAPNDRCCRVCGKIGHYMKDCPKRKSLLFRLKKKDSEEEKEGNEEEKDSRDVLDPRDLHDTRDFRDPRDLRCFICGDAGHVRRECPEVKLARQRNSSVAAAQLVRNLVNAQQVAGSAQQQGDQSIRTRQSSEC
Assay: TUTase assay (Zcchc11 assay, Lin28a-dependent polyuridylation of pre-let-7)
Type: biochemical
Details: Lin28a-dependent Zcchc11 (Z11) TUTase assay; read-out: Potency Lin28a-dep Z11 IC50
Method in brief: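 Readout: time-dependent quench of 5′-fluorescein pre-let-7 (2 nM) as 3′-rhodamine A20 probe anneals to poly(U) tails. Enzyme 0.2 nM Zcchc11 (res. 212-1420), LIN28A 10 nM, UTP 5 uM; pH 7.3 HEPES, 150 mM KCl, 5 mM MgCl2, RT. 4-parameter IC50; 100% = DMSO, 0% = no UTP.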

IC50, ≤ 1000 nM:
O=C(O)c1cn(-c2ccc(N3CC4CNCC4C3)nc2)c2cc(N3CCC[C@@H]3COc3ncccc3Cl)c(Cl)cc2c1=O (stereo partly drawn) [Example 527, 6-chloro-7-((R)-2-(((3-chloropyridin-2-yl)oxy)methyl)pyrrolidin-1-yl)-1-(6-(hexahydro-pyrrolo[3,4-c]pyrrol-2(1H)-yl)pyridin-3-yl)-4-oxo-1,4-dihydroquinoline-3-carboxylic acid acid]
Cc1cc2c(=O)c(C(=O)O)cn(-c3ccc(N4CC(N(C)C)C4)nc3)c2cc1N1CCC[C@@H]1COc1ncccc1F [Example 528, (R)-1-(6-(3-(dimethylamino)azetidin-1-yl)pyridin-3-yl)-7-(2-(((3-fluoropyridin-2-yl)oxy)methyl)pyrrolidin-1-yl)-6-methyl-4-oxo-1,4-dihydroquinoline-3-carboxylic acid]
O=C(O)c1cn(-c2cnc3cc[nH]c3n2)c2cc(N3CCC[C@@H]3COc3ncccc3Cl)c(Cl)cc2c1=O [Example 530, (R)-6-chloro-7-(2-(((3-chloropyridin-2-yl)oxy)methyl)pyrrolidin-1-yl)-4-oxo-1-(5H-pyrrolo[2,3-b]pyrazin-3-yl)-1,4-dihydroquinoline-3-carboxylic acid]
O=C(O)c1cn(-c2ccc(N3CCC3=O)nc2)c2nc(N3CCC[C@@H]3COc3ncccc3Cl)c(Cl)cc2c1=O [Example 531, (R)-6-chloro-7-(2-(((3-chloropyridin-2-yl)oxy)methyl)pyrrolidin-1-yl)-4-oxo-1-(6-(2-oxoazetidin-1-yl)pyridin-3-yl)-1,4-dihydro-1,8-naphthyridine-3-carboxylic acid]
CN(C)C1CN(c2ccc(-n3cc(C(=O)O)c(=O)c4cc(Cl)c(N5CCC[C@@H]5COc5ncccc5Cl)nc43)cn2)C1 [Example 532, (R)-6-chloro-7-(2-(((3-chloropyridin-2-yl)oxy)methyl)pyrrolidin-1-yl)-1-(6-(3-(dimethylamino)azetidin-1-yl)pyridin-3-yl)-4-oxo-1,4-dihydro-1,8-naphthyridine-3-carboxylic acid]
Cc1cc2c(=O)c(C(=O)O)cn(-c3ccc(N4CC(N(C)C)C4)nc3)c2cc1N1CCC[C@@H]1COc1ncccc1Cl [Example 533, (R)-7-(2-(((3-chloropyridin-2-yl)oxy)methyl)pyrrolidin-1-yl)-1-(6-(3-(dimethylamino)azetidin-1-yl)pyridin-3-yl)-6-methyl-4-oxo-1,4-dihydroquinoline-3-carboxylic acid]
O=C(O)c1cn(-c2ccc(F)c(O)c2)c2cc(N3CCC[C@@H]3COc3ccccn3)c(F)cc2c1=O [Example 534, (R)-6-fluoro-1-(4-fluoro-3-hydroxyphenyl)-4-oxo-7-(2-((pyridin-2-yloxy)methyl)pyrrolidin-1-yl)-1,4-dihydroquinoline-3-carboxylic acid]
O=C(O)c1cn(C2CCn3ccnc3C2)c2cc(N3CCC[C@@H]3COc3ncccc3Cl)c(Br)cc2c1=O (stereo partly drawn) [Example 536, 6-bromo-7-((R)-2-(((3-chloropyridin-2-yl)oxy)methyl)pyrrolidin-1-yl)-4-oxo-1-(5,6,7,8-tetrahydroimidazo [1,2-a]pyridin-7-yl)-1,4-dihydroquinoline-3-carboxylic acid]
CN(C)C1CN(c2ccc(-n3cc(C(=O)O)c(=O)c4cc(Br)c(N5CCC[C@@H]5COc5ncccc5Cl)cc43)cn2)C1 [Example 537, (R)-6-bromo-7-(2-(((3-chloropyridin-2-yl)oxy)methyl)pyrrolidin-1-yl)-1-(6-(3-(dimethylamino)azetidin-1-yl)pyridin-3-yl)-4-oxo-1,4-dihydroquinoline-3-carboxylic acid]
N#Cc1cc2c(=O)c(C(=O)O)cn(-c3cnccn3)c2cc1N1CCC[C@@H]1COc1ncccc1Cl [Example 538, (R)-7-(2-(((3-chloropyridin-2-yl)oxy)methyl)pyrrolidin-1-yl)-6-cyano-4-oxo-1-(pyrazin-2-yl)-1,4-dihydroquinoline-3-carboxylic acid]
COCCNc1ccc(-n2cc(C(=O)O)c(=O)c3cc(C#N)c(N4CCC[C@@H]4COc4ncccc4Cl)cc32)cn1 [Example 539, (R)-7-(2-(((3-chloropyridin-2-yl)oxy)methyl)pyrrolidin-1-yl)-6-cyano-1-(6-((2-methoxyethyl)amino)pyridin-3-yl)-4-oxo-1,4-dihydroquinoline-3-carboxylic acid]
N#Cc1cc2c(=O)c(C(=O)O)cn(C3CCn4ccnc4C3)c2cc1N1CCC[C@@H]1COc1ncccc1Cl (stereo partly drawn) [Example 540, 7-((R)-2-(((3-chloropyridin-2-yl)oxy)methyl)pyrrolidin-1-yl)-6-cyano-4-oxo-1-(5,6,7,8-tetrahydroimidazo [1,2-a]pyridin-7-yl)-1,4-dihydroquinoline-3-carboxylic acid]
O=C(O)c1cn(-c2ccncn2)c2cc(N3CCC[C@@H]3COc3ncccc3Cl)c(Cl)cc2c1=O [Example 541, (R)-6-chloro-7-(2-(((3-chloropyridin-2-yl)oxy)methyl)pyrrolidin-1-yl)-4-oxo-1-(pyrimidin-4-yl)-1,4-dihydroquinoline-3-carboxylic acid]
CN(C)C1CN(c2ccc(-n3cc(C(=O)O)c(=O)c4cc(C#N)c(N5CCC[C@@H]5COc5ncccc5Cl)cc43)cn2)C1 [Example 542, (R)-7-(2-(((3-chloropyridin-2-yl)oxy)methyl)pyrrolidin-1-yl)-6-cyano-1-(6-(3-(dimethylamino)azetidin-1-yl)pyridin-3-yl)-4-oxo-1,4-dihydroquinoline-3-carboxylic acid]
O=C(O)c1cn(-c2ccnc(N3CCC3)c2)c2nc(N3CCC[C@@H]3COc3ncccc3Cl)c(Cl)cc2c1=O [Example 543, (R)-1-(2-(azetidin-1-yl)pyridin-4-yl)-6-chloro-7-(2-(((3-chloropyridin-2-yl)oxy)methyl)pyrrolidin-1-yl)-4-oxo-1,4-dihydro-1,8-naphthyridine-3-carboxylic acid]
CN(C)C1CN(c2cc(-n3cc(C(=O)O)c(=O)c4cc(Cl)c(N5CCC[C@@H]5COc5ncccc5Cl)nc43)ccn2)C1 [Example 544, (R)-6-chloro-7-(2-(((3-chloropyridin-2-yl)oxy)methyl)pyrrolidin-1-yl)-1-(2-(3-(dimethylamino)azetidin-1-yl)pyridin-4-yl)-4-oxo-1,4-dihydro-1,8-naphthyridine-3-carboxylic acid]
Cc1cc2c(=O)c(C(=O)O)cn(-c3ccc(N4CC(N(C)C)C4)nc3)c2cc1N1CCC[C@@H]1COc1ncccc1C [Example 545, (R)-1-(6-(3-(dimethylamino)azetidin-1-yl)pyridin-3-yl)-6-methyl-7-(2-(((3-methylpyridin-2-yl)oxy)methyl)pyrrolidin-1-yl)-4-oxo-1,4-dihydroquinoline-3-carboxylic acid]
CCc1cc2c(=O)c(C(=O)O)cn(-c3ccc(N4CC(N(C)C)C4)nc3)c2cc1N1CCC[C@@H]1COc1ncccc1Cl [Example 546, (R)-7-(2-(((3-chloropyridin-2-yl)oxy)methyl)pyrrolidin-1-yl)-1-(6-(3-(dimethylamino)azetidin-1-yl)pyridin-3-yl)-6-ethyl-4-oxo-1,4-dihydroquinoline-3-carboxylic acid]
CN(C)C1CN(c2cc(-n3cc(C(=O)O)c(=O)c4cc(Cl)c(N5CCC[C@@H]5COc5ncccc5Cl)cc43)ccn2)C1 [Example 548, (R)-6-chloro-7-(2-(((3-chloropyridin-2-yl)oxy)methyl)pyrrolidin-1-yl)-1-(2-(3-(dimethylamino)azetidin-1-yl)pyridin-4-yl)-4-oxo-1,4-dihydroquinoline-3-carboxylic acid]
